# In patent publication US20260256792A1, “TREATMENT OF CHRONIC SPONTANEOUS URTICARIA BY ADMINISTERING (R)-2-[3-[4-AMINO-3-(2-FLUORO-4-PHENOXY-PHENYL)PYRAZOLO[3,4-D]PYRIMIDIN-1-YL]PIPERIDINE-1-CARBONYL]-4-METHYL-4-[4-(OXETAN-3-YL)PIPERAZIN-1-YL]PENT-2-ENENITRILE” (priority 2023, published 2026):
# Test system: moderate-to-severe chronic spontaneous urticaria (CSU)
# Assay: Phase 2 CSU study: itch severity score over 7 days (ISS7)
# Assay type: in vivo, human
# Source text: The study comprises a 12 week, randomized, double-blind, placebo-controlled, multi-center, dose-ranging efficacy and safety phase, followed by a 40 week open label extension (OLE) phase (see FIG. 1). The study consists of three phases and an optional OLE phase. […] Clinically, CSU is characterized by the spontaneous and recurrent appearance of pruritic hives. The proposed primary endpoints were the UAS7 at Week 12 in EU and EU reference countries and the ISS7 in the US. Regardless of where a participant was from, all assessments were the same. The UAS7 score is a composite score containing both the HSS7 and the ISS7. This allowed a global assessment of the two key components of urticaria: hives and itch. […] The UAS is a validated PRO measure. […] The daily UAS scores range from 0 to 6 point/day. […] Patients were to complete the UAS using the e-diary. […] The following secondary endpoints were to be analyzed using the same approach as for the primary endpoint: • Change from baseline in UAS7 at Week 4 • Change from baseline in UAS7 at Week 12 (for US and US reference countries) • Change from baseline in ISS7 at Week 12 (except US and US reference countries) • Change from baseline in HSS7 at Week 12
# [1] = Week 10, 400 mg QPM, Omalizumab-Naïve
# [2] = Week 10, 400 mg QPM, Prior Omalizumab Use
# [3] = Week 10, 400 mg TID, Omalizumab-Naïve
# [4] = Week 10, 400 mg TID, Prior Omalizumab Use
# [5] = Week 11, 400 mg BID, Omalizumab-Naïve
# [6] = Week 11, 400 mg BID, Prior Omalizumab Use
# [7] = Week 11, 400 mg QPM, Omalizumab-Naïve
# [8] = Week 11, 400 mg QPM, Prior Omalizumab Use
# [9] = Week 11, 400 mg TID, Omalizumab-Naïve
# [10] = Week 11, 400 mg TID, Prior Omalizumab Use
# [11] = Week 12, 400 mg BID, Omalizumab-Naïve
# [12] = Week 12, 400 mg BID, Prior Omalizumab Use
# [13] = Week 12, 400 mg QPM, Omalizumab-Naïve
# [14] = Week 12, 400 mg QPM, Prior Omalizumab Use
# [15] = Week 12, 400 mg TID, Omalizumab-Naïve
# [16] = Week 12, 400 mg TID, Prior Omalizumab Use
smiles,measurement,setting,value
"CC(C)(C=C(C#N)C(=O)N1CCC[C@@H](n2nc(-c3ccc(Oc4ccccc4)cc3F)c3c(N)ncnc32)C1)N1CCN(C2COC2)CC1 [rilzabrutinib, (R)-2-[3-[4-amino-3-(2-fluoro-4-phenoxy-phenyl)pyrazolo[3,4-d]pyrimidin-1-yl]piperidine-1-carbonyl]-4-methyl-4-[4-(oxetan-3-yl)piperazin-1-yl]pent-2-enenitrile]",ISS7 Change from baseline Median,[1],−6.00
same,ISS7 Mean (SD),[1],10.43 (5.30)
same,ISS7 Median,[1],9.50
same,ISS7 Percent change from baseline Mean (SD),[1],−37.25 (29.62) %
same,ISS7 Percent change from baseline Median,[1],−39.23%
same,ISS7 Change from baseline Mean (SD),[2],−13.00 (NC)
same,ISS7 Change from baseline Median,[2],−13.00
same,ISS7 Mean (SD),[2],8.00 (NC)
same,ISS7 Median,[2],8.00
same,ISS7 Percent change from baseline Mean (SD),[2],−61.90 (NC) %
same,ISS7 Percent change from baseline Median,[2],−61.90%
same,ISS7 Change from baseline Mean (SD),[3],−9.55 (5.37)
same,ISS7 Change from baseline Median,[3],−10.00
same,ISS7 Mean (SD),[3],6.75 (5.25)
same,ISS7 Median,[3],7.00
same,ISS7 Percent change from baseline Mean (SD),[3],−58.27 (30.87) %
same,ISS7 Percent change from baseline Median,[3],−57.19%
same,ISS7 Change from baseline Mean (SD),[4],−12.17 (8.26)
same,ISS7 Change from baseline Median,[4],−13.00
same,ISS7 Mean (SD),[4],4.83 (6.85)
same,ISS7 Median,[4],3.00
same,ISS7 Percent change from baseline Mean (SD),[4],−68.55 (36.38) %
same,ISS7 Percent change from baseline Median,[4],−79.76%
same,ISS7 Change from baseline Mean (SD),[5],−7.51 (6.18)
same,ISS7 Change from baseline Median,[5],−8.00
same,ISS7 Mean (SD),[5],7.93 (6.94)
same,ISS7 Median,[5],7.00
same,ISS7 Percent change from baseline Mean (SD),[5],−49.75 (40.18) %
same,ISS7 Percent change from baseline Median,[5],−57.14%
same,ISS7 Change from baseline Mean (SD),[6],−10.43 (9.36)
same,ISS7 Change from baseline Median,[6],−13.00
same,ISS7 Mean (SD),[6],6.77 (8.14)
same,ISS7 Median,[6],2.00
same,ISS7 Percent change from baseline Mean (SD),[6],−58.05 (49.51) %
same,ISS7 Percent change from baseline Median,[6],−86.67%
same,ISS7 Change from baseline Mean (SD),[7],−6.07 (4.83)
same,ISS7 Change from baseline Median,[7],−6.00
same,ISS7 Mean (SD),[7],11.03 (5.55)
same,ISS7 Percent change from baseline Mean (SD),[7],−36.12 (28.12) %
same,ISS7 Percent change from baseline Median,[7],−30.00%
same,ISS7 Change from baseline Mean (SD),[8],−12.00 (NC)
same,ISS7 Change from baseline Median,[8],−12.00
same,ISS7 Mean (SD),[8],9.00 (NC)
same,ISS7 Median,[8],9.00
same,ISS7 Percent change from baseline Mean (SD),[8],−57.14 (NC) %
same,ISS7 Percent change from baseline Median,[8],−57.14%
same,ISS7 Change from baseline Mean (SD),[9],−9.23 (5.92)
same,ISS7 Change from baseline Median,[9],−9.00
same,ISS7 Mean (SD),[9],6.99 (5.53)
same,ISS7 Median,[9],7.00
same,ISS7 Percent change from baseline Mean (SD),[9],−56.08 (33.60) %
same,ISS7 Percent change from baseline Median,[9],−60.00%
same,ISS7 Change from baseline Mean (SD),[10],−12.58 (8.36)
same,ISS7 Change from baseline Median,[10],−13.75
same,ISS7 Mean (SD),[10],4.42 (6.99)
same,ISS7 Median,[10],1.75
same,ISS7 Percent change from baseline Mean (SD),[10],−71.13 (37.09) %
same,ISS7 Percent change from baseline Median,[10],−87.50%
same,ISS7 Change from baseline Mean (SD),[11],−7.40 (6.12)
same,ISS7 Change from baseline Median,[11],−7.00
same,ISS7 Mean (SD),[11],8.09 (6.95)
same,ISS7 Median,[11],7.00
same,ISS7 Percent change from baseline Mean (SD),[11],−49.06 (38.85) %
same,ISS7 Percent change from baseline Median,[11],−45.00%
same,ISS7 Change from baseline Mean (SD),[12],−13.50 (9.33)
same,ISS7 Change from baseline Median,[12],−16.50
same,ISS7 Mean (SD),[12],4.50 (9.00)
same,ISS7 Median,[12],0.00
same,ISS7 Percent change from baseline Mean (SD),[12],−75.00 (50.00) %
same,ISS7 Percent change from baseline Median,[12],−100.00%
same,ISS7 Change from baseline Mean (SD),[13],−5.69 (4.72)
same,ISS7 Change from baseline Median,[13],−5.33
same,ISS7 Median,[13],11.60
same,ISS7 Percent change from baseline Mean (SD),[13],−33.81 (26.94) %
same,ISS7 Percent change from baseline Median,[13],−32.64%
same,ISS7 Change from baseline Mean (SD),[14],−14.00 (NC)
same,ISS7 Change from baseline Median,[14],−14.00
same,ISS7 Mean (SD),[14],7.00 (NC)
same,ISS7 Median,[14],7.00
same,ISS7 Change from baseline Mean (SD),[15],−10.27 (6.02)
same,ISS7 Change from baseline Median,[15],−10.33
same,ISS7 Mean (SD),[15],5.77 (5.26)
same,ISS7 Median,[15],7.00
same,ISS7 Percent change from baseline Mean (SD),[15],−62.66 (31.72) %
same,ISS7 Percent change from baseline Median,[15],−57.19%
same,ISS7 Change from baseline Mean (SD),[16],−13.00 (9.27)
same,ISS7 Change from baseline Median,[16],−17.00
same,ISS7 Mean (SD),[16],4.60 (7.80)
same,ISS7 Median,[16],0.00
same,ISS7 Percent change from baseline Mean (SD),[16],−70.36 (41.41) %
same,ISS7 Percent change from baseline Median,[16],−100.00%
